# Laboratory results taken from patent publication US20240285539A1, “PROTECTIVE COATING FOR MOISTURE SENSITIVE PHARMACEUTICAL COMPOSITIONS” (R.P. Scherer Technologies, LLC, priority 2021, published 2024).
# Assay: Solubility, hygroscopicity and moisture sensitivity of AKST-4290 API
# Assay type: physicochemical
# From the text: Applicant has been able to prevent degradation utilizing the wax coating process described herein. This technique reduced the coating time and limited water uptake of core tablets improving impurity profile at T-0.
# Specifically, the wax was applied as a sub-coat to the core tablets. In the case of AKST-4290, one of the purposes of this wax coat was to protect the API in the tablets from moisture. […] Although the relative humidity can be controlled during the upstream process of creating the tablet, this cannot be achieved in a coating process with aqueous solutions.
compound,measurement,setting,value
Cc1cc(C(=O)N(C)C)cc(NC(=O)[C@H]2CCC(=O)N2C2CCN(Cc3ccc(Cl)c(C)c3)CC2)n1 [AKST-4290],Hygroscopicity of API,in words,highly hygroscopic
same,Solubility of API,in words,highly soluble
same,Stability on exposure to humidity,"relative humidity over 40%, even for a couple of minutes",undergoes both physical and chemical changes
